B1: Spacer: full-length pRb2/p130 spacer domain, amino acids 616-828 (SEQ ID NO:20) (protein, listed as Homo sapiens)
chain: VPTCEEVMPPQNLERADEICIAGSPLTPRRVTEVRADTGGLGRSITSPTTLYDRYSSPPASTTRRRLFVENDSPSDGGTPGRMPPQPLVNAVPVQNVSGETVSVTPVPGQTLVTMATATVTANNGQTVTIPVQGIANENGGITFFPVQVNVGGQAQAVTGSIQPLSAQALAGSLSSQQVTGTTLQVPGQVAIQQISPGGQQQKQGQSVTSSSN

How the values were obtained:
NIH/3T3 cells [1] = experiment: cell cycle analysis by flow cytometry (FACS); assay type: cell-based; conditions: NIH/3T3 transiently transfected, EGFP-gated; 48 h after transfection; propidium iodide
Description: A marker plasmid expressing enhanced green fluorescent protein (EGFP)-spectrin was included in the transfection mixture. Control cells, which were not transfected with EGFP-spectrin, were used as the EGFP-negative population. Cells were harvested and examined for their cell cycle states by fluorescence-activated cell sorter (FACS) analysis. After harvest, cells were fixed by adding ice-cold 70% ethanol while vortexing. Fixed cells were stored at 4° C. for at least 30 min and then washed once with PBS. Cells were then stained with 10 μg/ml propidium iodide (Roche Applied Science, Indianapolis, Ind.), 250 μg/ml RNase (Sigma, St. Louis, Mo.) in PBS and incubated at 37° C. for 30 min in the dark. Transfected cells were gated according to their EGFP expression and the DNA content was determined by flow cytometry analysis. The percentage of cells in the different phases of the cell cycle was measured with a FACS Calibur instrument (Becton-Dickinson, San Jose, Calif.) and the data obtained were analyzed by WinMDI 2.8 software. […]
In FIG. 5a, three plasmids were co-expressed with EGFP-spectrin, in a 1:10 ratio, in transient transfection assays. Cells were harvested 48 hours after transfection, stained with propidium iodide and analyzed by flow cytometric gating for both GFP and propidium iodide. […]

NIH/3T3 cells [2] = experiment: colony formation assay; assay type: cell-based; conditions: NIH/3T3 transfected with 5 μg pEF6/V5 construct; blasticidin S selection; colonies counted after eight days
Description: Colony formation assay: The effects of the pRb2/p130 spacer domain and 39 aa small peptide overexpression on cellular growth was examined by colony formation assays. Exponentially growing NIH/3T3 cells were seeded in 100-mm dishes at a density of 5×10^5 cells per 100 mm dish the day before transfection. Cells were transfected with 5 μg of pEF6/V5-spacer, pEF6/V5-Spa310 or the control vector pEF6/V5 carrying the brasticidin S-resistant gene (bsr) as a selectable marker gene. For selection, blasticidin S hydrochloride (Funakoshi, Tokyo, Japan) was added to the culture medium 48 h after transfection, at a final concentration of 10 μg/mL. After 6 days, 1×10^3 of blasticidin S-resistant cells in each well were plated in triplicate in 60-mm dishes, in order to evaluate their colony-forming ability. Cells were then incubated at 37° C. for eight days in a selecting medium containing blasticidin S hydrochloride at a final concentration of 10 μg/mL. Colonies, defined as groups of a minimum of 50 cells, were counted after staining with 2% methylene blue in 95% ethanol.
As presented in FIGS. 4a and 4b, the spacer region caused a decrease on the ability of the cells to form colonies of about 50% and the Spa310 of about 60%. […] After six days, an equal number of resistant cells were plated in 60-mm dishes and colony-forming ability was evaluated after eight days of continuous selection. […]

Molecule | effect on cell cycle distribution (NIH/3T3 cells [1]) | decrease on the ability of the cells to form colonies (NIH/3T3 cells [2])
Spa310: pRb2/p130 amino acids 641-679 (39 amino acids long), SEQ ID NO:3; LTPRRVTEVRADTGGLGRSITSPTTLYDRYSSPPASTTR (listed as Homo sapiens) | induced a G0/G1 arrest of the cell cycle | about 60%
B1 | induced a G0/G1 arrest of the cell cycle | about 50%

From US20090054333A1, “Peptide inhibitors of cyclin-dependent kinase activity and uses thereof” (priority 2006, published 2009)
